One may read the microsomal CLint as the capacity of the preparation to metabolise the compound, expressed as a volume cleared per time.

Series [1] can be described thus: Intrinsic clearance in human microsomes. It is filed as ADME, Microsome.
For series [2], the target named is 72 kDa type IV collagenase (Homo sapiens, UniProt P08253). The series can be described thus: Inhibition of MMP2 using Mca-Pro-cyclohexyl-Ala-Gly-Nva-His-Ala- Dap(Dnp)-NH2 as substrate by fluorometric analysis. The note with it: read-out: pIC50 (converted).
For the next series, the target named is Collagenase 3 (Homo sapiens, UniProt P45452). The experiment in a line: Inhibition of recombinant human MMP13 using Mca-Pro-cyclohexyl-Ala-Gly-Nva-His-Ala- Dap(Dnp)-NH2 as substrate by fluorometric analysis. The settings on record: read-out: pIC50 (converted).

Sequence of 72 kDa type IV collagenase (P08253 whole entry): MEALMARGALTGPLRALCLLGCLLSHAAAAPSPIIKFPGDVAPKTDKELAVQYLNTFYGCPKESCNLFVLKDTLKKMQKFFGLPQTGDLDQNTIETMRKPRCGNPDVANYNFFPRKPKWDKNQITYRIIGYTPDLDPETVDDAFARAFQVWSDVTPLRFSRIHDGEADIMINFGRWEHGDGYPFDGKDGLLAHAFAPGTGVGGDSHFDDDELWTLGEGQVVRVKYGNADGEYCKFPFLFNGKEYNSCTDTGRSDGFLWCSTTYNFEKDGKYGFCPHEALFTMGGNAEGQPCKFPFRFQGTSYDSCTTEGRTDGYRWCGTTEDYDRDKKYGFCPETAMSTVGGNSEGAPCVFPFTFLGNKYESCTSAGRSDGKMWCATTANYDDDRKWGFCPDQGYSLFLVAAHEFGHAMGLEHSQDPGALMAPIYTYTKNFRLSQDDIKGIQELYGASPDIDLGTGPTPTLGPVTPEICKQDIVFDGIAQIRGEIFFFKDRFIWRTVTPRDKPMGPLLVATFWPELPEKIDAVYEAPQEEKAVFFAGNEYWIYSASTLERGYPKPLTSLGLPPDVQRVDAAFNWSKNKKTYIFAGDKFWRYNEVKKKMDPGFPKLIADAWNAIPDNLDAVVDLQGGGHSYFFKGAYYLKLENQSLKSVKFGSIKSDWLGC

On to `O=C(NCc1ccnc2ccccc12)c1ccc(Oc2ccc(C#C[C@]3(O)CN4CCC3CC4)cc2)cc1`, for which the microsomal CLint in series [1] worked out at 26.1 µL/min/mg. For the same molecule, the IC50 in series [2] is 2000 nM; on Collagenase 3, 20 nM.

In turn, `COc1cccc(CNC(=O)c2ccc(Oc3ccc(C#C[C@]4(O)CN5CCC4CC5)cc3)cc2)c1` yielded a microsomal CLint in series [1] of 10.9 µL/min/mg. The figures for the IC50 (in series [2]; at Collagenase 3) were greater than 10000 nM and 79.4 nM, respectively.

Consider `C[S+]([O-])c1ccc(Oc2ccc(C#C[C@]3(O)CN4CCC3CC4)cc2)cc1` (stereo partly drawn), for which the IC50 at Collagenase 3 was 398 nM.

With `CC(=O)Nc1ccc(Oc2ccc(C#C[C@]3(O)CN4CCC3CC4)cc2)cc1`, the IC50 on Collagenase 3 was greater than 10000 nM.

Turning to `O=C(NCc1ccc(F)cc1)c1ccc(Oc2ccc(C#C[C@]3(O)CN4CCC3CC4)cc2)cc1`, the IC50 in series [2] was 6310 nM; at Collagenase 3, 100 nM.

For `CS(=O)(=O)Nc1ccc(Oc2ccc(C#C[C@]3(O)CN4CCC3CC4)cc2)cc1`, the IC50 at Collagenase 3 is 2510 nM.

Take `CN(C)C(=O)c1ccc(Oc2ccc(C#C[C@]3(O)CN4CCC3CC4)cc2)cc1`: the IC50 at Collagenase 3 is 1580 nM.

Regarding `CC[C@@H](C)NC(=O)c1ccc(Oc2ccc(C#C[C@]3(O)CN4CCC3CC4)cc2)cc1`, the microsomal CLint in series [1] amounted to 8.9 µL/min/mg. Further, the results for the IC50 (in series [2]; at Collagenase 3) were 6310 nM and 50.1 nM, respectively.

Take `O=C(O)c1ccc(Oc2ccc(C#C[C@]3(O)CN4CCC3CC4)cc2)cc1`: the IC50 at Collagenase 3 was 5010 nM.

Regarding `CN(Cc1ccncc1)C(=O)c1ccc(Oc2ccc(C#C[C@]3(O)CN4CCC3CC4)cc2)cc1`, the IC50 was greater than 10000 nM in series [2] and 251 nM on Collagenase 3.

As to `CC(C)NC(=O)c1ccc(Oc2ccc(C#C[C@]3(O)CN4CCC3CC4)cc2)cc1`, the figures for the IC50 (in series [2]; on Collagenase 3) were greater than 10000 nM and 100 nM, respectively.

On to `O=C(NCC1CCCCC1)c1ccc(Oc2ccc(C#C[C@]3(O)CN4CCC3CC4)cc2)cc1`, for which the IC50 is 5010 nM in series [2] and 100 nM on Collagenase 3.

Regarding `CCOC(=O)c1ccc(Oc2ccc(C#C[C@]3(O)CN4CCC3CC4)cc2)cc1`, the IC50 at Collagenase 3 is 1000 nM.

With `O=C(NCc1ccccc1)c1ccc(Oc2ccc(C#C[C@]3(O)CN4CCC3CC4)cc2)cc1`, the microsomal CLint in series [1] was less than 2 µL/min/mg. The IC50 is 7940 nM in series [2] and 63.1 nM at Collagenase 3.

With `O=C(Nc1ccccn1)c1ccc(Oc2ccc(C#C[C@]3(O)CN4CCC3CC4)cc2)cc1`, the microsomal CLint in series [1] is less than 2 µL/min/mg. Further, the IC50 in series [2] was greater than 10000 nM; at Collagenase 3, 316 nM.

In the case of `CONC(=O)c1ccc(Oc2ccc(C#C[C@]3(O)CN4CCC3CC4)cc2)cc1`, the IC50 at Collagenase 3 is 2510 nM.

Molecule `CS(=O)(=O)c1cccc(CNC(=O)c2ccc(Oc3ccc(C#C[C@]4(O)CN5CCC4CC5)cc3)cc2)c1` displayed a microsomal CLint in series [1] of 12.5 µL/min/mg. Also, the IC50 is 7940 nM in series [2] and 31.6 nM at Collagenase 3.

In series [1], `COc1cc(CNC(=O)c2ccc(Oc3ccc(C#C[C@]4(O)CN5CCC4CC5)cc3)cc2)cc(OC)c1` returned a microsomal CLint of 4.8 µL/min/mg. The IC50 is 7940 nM in series [2] and 50.1 nM at Collagenase 3.

In series [1], `COc1ccc(CNC(=O)c2ccc(Oc3ccc(C#C[C@]4(O)CN5CCC4CC5)cc3)cc2)c(OC)c1` registered a microsomal CLint of 16.1 µL/min/mg. In addition, the figures for the IC50 (in series [2]; at Collagenase 3) were 6310 nM and 39.8 nM, respectively.

For the molecule `COc1ccc(CNC(=O)c2ccc(Oc3ccc(C#C[C@]4(O)CN5CCC4CC5)cc3)cc2)cc1OC`, the microsomal CLint in series [1] was 2.7 µL/min/mg. Further, the values for the IC50 (in series [2]; on Collagenase 3) were 1260 nM and 10 nM, respectively.

As to `NC(=O)c1ccc(Oc2ccc(C#C[C@]3(O)CN4CCC3CC4)cc2)cc1`, at Collagenase 3, the IC50 was 631 nM.

Take `O=C(NCc1ccncc1)c1ccc(Oc2ccc(C#C[C@]3(O)CN4CCC3CC4)cc2)cc1`: in series [1], the microsomal CLint stood at 10.2 µL/min/mg. The IC50 in series [2] is 6310 nM.

Turning to `CS(=O)(=O)c1ccc(Oc2ccc(C#C[C@]3(O)CN4CCC3CC4)cc2)cc1`, at Collagenase 3, the IC50 is 316 nM.

`OCc1ccc(Oc2ccc(C#C[C@]3(O)CN4CCC3CC4)cc2)cc1`: at Collagenase 3, the IC50 is greater than 10000 nM.

As for `CNS(=O)(=O)c1ccc(Oc2ccc(C#C[C@]3(O)CN4CCC3CC4)cc2)cc1`, the IC50 on Collagenase 3 is 100 nM.

(Values after ChEMBL document CHEMBL1938343, “Lead optimisation of selective non-zinc binding inhibitors of MMP13. Part 2” (Bioorg Med Chem Lett, 2012).)
